What was measured:
p38α MAP Kinase = assay: A549 p38α MAP Kinase Bright-Glo Reporter Gene Assay; type: cell-based; conditions: ratio of p38 RGA IC50 to A375 CP IC50
Procedure: A549 cells were stably-transfected with the IL-8 promoter driven reporter, pGL3-IL8-Luc. The cells were plated at 4×10^5/ml into 384-well solid white plates (40 ul/well, 5% CD-FBS, 1×P/S, DMEM) and were incubated overnight (18-20 hours) at 37° C. Test compounds were serially diluted in DMSO, then 50 nl of test solution was added to the incubation (final DMSO concentration of 0.1%). After incubating with test compound for 30 min, cells were stimulated with 1 ng/ml IL-1 beta (10 ul of 5 ng/ml solution per well). Bright-Glo (25 ul/well) was added to measure luciferase expression after 7-8 hours of stimulation.

[1] = In Vivo Pharmacokinetics Assay; design: species or system mouse; conditions: oral dose of 10 mg/kg
Procedure: Full pharmacokinetics study: Male Balb/c mice (n=3, body weights 22-25 g) or male Wistar rats (n=3, body weights 250-300 g) were administered the test compound intravenously via the lateral tail vein or orally via gavage. The formulation was typically a 2.5 mg/mL solution of the compound in 75% PEG300 and 25% D5W. Six blood samples of 50 μL each were collected serially for 24 h after dosing. The blood samples were centrifuged to separate the plasma. Plasma samples were analyzed and quantified by LC-MS/MS.
Rapid pharmacokinetics study: Male Balb/c mice (n=3, body weights 22-25 g) or male Wistar rats (n=3, body weights 250-300 g) were administered the test compound intravenously (IV) via the lateral tail vein or orally (PO) via gavage. The formulation was typically a 2.5 mg/mL solution of the compound in 75% PEG300 and 25% D5W. Six blood samples of 50 μL each were collected serially for 24 h after dosing. […] Plasma samples were analyzed and quantified by LC-MS/MS.
For both full and rapid pharmacokinetics studies, the following parameters were calculated by non-compartmental regression analysis using Winnonlin 5.0 software (Pharsight, Mountain View, Calif., USA): plasma clearance (Cl), plasma maximum concentration (Cmax), plasma area-under-the-concentration-time-curve (AUC0-inf), and percent oral bioavailability (F %).

SW620 cells = assay: SW620 Cell Viability Assay (Cell Titer Glo); type: cell-based; conditions: 9 serial dilutions between 10 and 0.002 μM, FIG. 1
Procedure: SW620 cells were seeded in 1640 RPMI+10% FBS at a density of 1500 cells per 96-well in black walled, clear bottom tissue culture treated plates. Test compounds were serially diluted in DMSO then added to the cells (final DMSO concentration of 0.1%) and incubated at 37° C. and 5% CO2 for 4 days. To measure cell viability, cell plates were brought to room temperature, culture media was removed, and 200 μl of Cell Titer-Glo reagent (Promega, kit components mixed as per the manufacturer's protocol then diluted 1:2 with growth media) was added to each well. Plates were shaken for 5 minutes, then incubated at room temperature for 5 minutes, and the luminescence was measured (Trilux, Perkin Elmer).

A375 cells = assay: A375 Cellular Proliferation Assay (A375 CP); type: cell-based; conditions: Homo sapiens, A-375, 48 h; A375-luc cells, 2 days
Procedure: A375-luc cells engineered to express luciferase are plated to 384-well white clear bottom plates as 1,500 cells/50 μl/well in DMEM containing 10% FBS. Compounds of the invention dissolved in 100% DMSO at appropriate concentrations are transferred to the cells by a robotic Pin Tool (100 nl). The cells are incubated for 2 days at […], then 25 μl of BrightGlo™ is added to each well and the plates are read by luminescence. The concentration of each compound for 50% inhibition (IC50) was calculated by non-linear regression using XL Fit data analysis software.

CNc1nccc(-c2cn(C(C)C)nc2-c2cc(Cl)cc(NS(C)(=O)=O)c2F)n1 [Compound 29, N-(5-chloro-2-fluoro-3-{4-[2-(methylamino)pyrimidin-4-yl]-1-(propan-2-yl)-1H-pyrazol-3-yl}phenyl)methanesulfonamide]
(p38 RGA)/(A375) ratio (p38α MAP Kinase): 220

COC(=O)N[C@@H](C)CNc1nccc(-c2cn(C(C)C)nc2-c2cc(Cl)cc(NS(C)(=O)=O)c2F)n1 [Compound 9, Methyl N-[(2S)-1-({4-[3-(5-chloro-2-fluoro-3-methanesulfonamidophenyl)-1-(propan-2-yl)-1H-pyrazol-4-yl]pyrimidin-2-yl}amino)propan-2-yl]carbamate]
AUC (total drug exposure) [1]: 30 ± 4 µM·h
Effect on cellular proliferation (SW620 cells): induction in cellular proliferation

COC(=O)NC[C@H](C)Nc1nccc(-c2cn(C(C)C)nc2-c2cc(Cl)cc(NS(C)(=O)=O)c2F)n1 [Compound 32, Methyl N-[(2S)-2-({4-[3-(5-chloro-2-fluoro-3-methanesulfonamidophenyl)-1-(propan-2-yl)-1H-pyrazol-4-yl]pyrimidin-2-yl}amino)propyl]carbamate]
(p38 RGA)/(A375) ratio (p38α MAP Kinase): 91

COC(=O)N[C@@H](C)CNc1nccc(-c2cn(C(C)C)nc2-c2cc(NS(C)(=O)=O)c(C)c(OC)c2)n1 [Compound 27]
IC50 (A375 cells): > 20 µM

Source: patent US9593100B2, “Compounds and compositions as protein kinase inhibitors” (Array BioPharma, Inc., priority 2009, dated 2017)
